Earlier results in patent publication US9351995B1, “Compositions and methods of enhancing wound healing” (RED OAX HOLDINGS, LLC, priority 2011, dated 2016).

How the values were obtained:
fibroblast = details: cited from earlier work
[1] = test system: human surface respiratory epithelium; details: cited from earlier work

| Structure (SMILES) | fibroblast outgrowth (fibroblast) | effect on repair of small-size injuries [1] |
| --- | --- | --- |
| [Br-].[Br-].[Mg+2] [MgBr2] | inhibitory effects on fibroblast outgrowth | – |
| COc1cc2c(c(OC)c1OC)-c1ccc(OC)c(=O)cc1[C@@H](NC(C)=O)CC2 [colchicine] | – | did not interrupt the repair process |
| C=C1[C@@H](C)[C@H]2[C@H](Cc3ccccc3)NC(=O)[C@]23OC(=O)/C=C/[C@H](O)CCC[C@@H](C)C/C=C/[C@H]3[C@@H]1O [cytochalasin B] | – | prevented cell migration |
